Data on 52 compounds can be found in US10070645B2, “N-cycloalkyl-N-{[2-(1-substitutedcycloalkyl)phenyl]methylene}-(thio)carboxamide derivatives” (BAYER CROPSCIENCE AKTIENGESELLSCHAFT, priority 2013, dated 2018).

The nature of this series: log P by HPLC on a reversed-phase column (C 18), EEC Directive 79/831 Annex V.A8. The format is physicochemical. Conditions: for logP: 0.1% aqueous formic acid and acetonitrile; for chromatographic logP: reversed-phase HPLC column (C 18), preparation examples. Here is the method: In table 1, the log P values were determined in accordance with EEC Directive 79/831 Annex V.A8 by HPLC (High Performance Liquid Chromatography) on a reversed-phase column (C 18), using the method described below:
Temperature: 40° C.; Mobile phases: 0.1% aqueous formic acid and acetonitrile; linear gradient from 10% acetonitrile to 90% acetonitrile.
Calibration was carried out using unbranched alkan-2-ones (comprising 3 to 16 carbon atoms) with known log P values (determination of the log P values by the retention times using linear interpolation between two successive alkanones). lambda-max-values were determined using UV-spectra from 200 nm to 400 nm and the peak values of the chromatographic signals.

[1] abbreviates: Table 4 (aldehydes of formula IV), HPLC C 18, 40° C.
The mark [2] stands for this setting: HPLC on reversed-phase column (C 18), 40° C., linear gradient 10% to 90% acetonitrile.
Where [3] appears, read: HPLC, reversed-phase column (C 18), 40° C., linear gradient 10% to 90% acetonitrile.

The logP is the decadic logarithm of the partition coefficient of the neutral form, usually between octanol and water. High values mean a more lipophilic compound, low ones a more hydrophilic compound. In the case of “1-(2-formyl-4-methylphenyl)cyclopropanecarbonitrile [IV.16]”, the logP under setting [1] came out at 2.08.
Same read-out and setting: next, “3-fluoro-2-(1-methylcyclopropyl)benzaldehyde [IV.14]”: 3.13.
Compound `Cn1nc(C(F)F)c(C(=O)N(Cc2cc(Cl)ccc2C2(C)CC2(Cl)Cl)C2CC2)c1F` (racemic) [I.168] gave a logP under setting [2] of 4.39.
`Cn1nc(C(F)F)c(C(=O)N(Cc2cc(C3CC3)ccc2C2(C)CC2(Cl)Cl)C2CC2)c1F` (racemic) [I.169] yielded a log partition coefficient (logP) under setting [2] of 4.59.
Under setting [2], `Cn1nc(C(F)F)c(C(=O)N(Cc2cc(F)ccc2C2(C)CC2(Cl)Cl)C2CC2)c1F` (racemic) [I.170] had a logP of 4.09.
Consider `Cn1nc(C(F)F)c(C(=O)N(Cc2cc(F)ccc2C2(C)CC2(Cl)Cl)C2CC2)c1Cl` (racemic) [I.171], for which the logP under setting [2] is given as 4.21.
With `Cc1ccc(C2(C)CC2(Cl)Cl)c(CN(C(=O)c2c(C(F)F)nn(C)c2F)C2CC2)c1` (racemic) [I.172], the lipophilicity (logP) under setting [2] amounted to 4.24.
Compound `Cn1nc(C(F)F)c(C(=O)N(Cc2c(C3(C)CC3(Cl)Cl)ccc(Cl)c2Cl)C2CC2)c1F` (racemic) [I.173] gave a logP under setting [2] of 4.71.
Compound `Cn1nc(C(F)F)c(C(=O)N(Cc2c(C3(C)CC3(Cl)Cl)ccc(Cl)c2Cl)C2CC2)c1Cl` (racemic) [I.174] showed a logP under setting [2] of 4.81. This logP and that of the compound before are within 0.2 log units of each other.
`Cn1nc(C(F)F)c(C(=O)N(Cc2c(C3(C)CC3(Cl)Cl)ccc(Cl)c2F)C2CC2)c1Cl` (racemic) [I.175] came in with a logP under setting [2] of 4.61.
The compound `Cn1nc(C(F)F)c(C(=O)N(Cc2c(C3(C)CC3(Cl)Cl)ccc(Cl)c2F)C2CC2)c1F` (racemic) [I.176] showed a logP under setting [2] of 4.46.
As to `Cc1ccc(C2(C)CC2(Cl)Cl)c(CN(C(=O)c2c(C(F)F)nn(C)c2Cl)C2CC2)c1Cl` (racemic) [I.177], under setting [2], the logP was found to be 4.78.
`Cc1ccc(C2(C)CC2(Cl)Cl)c(CN(C(=O)c2c(C(F)F)nn(C)c2F)C2CC2)c1Cl` (racemic) [I.178] displayed a logP under setting [2] of 4.67.
`Cc1ccc(C2(C)CC2(Cl)Cl)c(CN(C(=O)c2c(C(F)F)nn(C)c2F)C2CC2)c1F` (racemic) [I.179] came in with a logP under setting [2] of 4.41.
As usually defined, the chromatographic logP is a lipophilicity value derived from retention on a column. On to `CC1(c2ccc(Cl)cc2Br)CC1` [2-bromo-4-chloro-1-(1-methylcyclopropyl)benzene], for which the chromatographic logP was determined as 4.93.
The compound `C=C(C)c1ccc(Cl)cc1Br` [2-bromo-4-chloro-1-(prop-1-en-2-yl)benzene] had a chromatographic logP of 4.91.
Consider `Cn1nc(C(F)F)c(C(=O)N(Cc2ccccc2C2(C)CC2)C2CC2)c1F` [I.001], for which the logP under setting [3] amounted to 3.85.
For `Cn1nc(C(F)F)c(C(=O)N(Cc2ccccc2C2(C)CC2)C2CC2)c1Cl` [I.002], the logP under setting [3] came to 4.01.
The compound `Cn1nc(C(F)F)c(C(=S)N(Cc2ccccc2C2(C)CC2)C2CC2)c1F` [I.003] gave a logP under setting [3] of 4.46.
Take `Cn1nc(C(F)F)c(C(=S)N(Cc2ccccc2C2(C)CC2)C2CC2)c1Cl` [I.004]: the logP under setting [3] worked out at 4.63.
Under setting [3], `Cn1nc(C(F)F)c(C(=O)N(Cc2cccc(Cl)c2C2(C)CC2)C2CC2)c1F` [I.005] registered a logP of 4.30.
For the compound `Cn1nc(C(F)F)c(C(=O)N(Cc2cccc(Cl)c2C2(C)CC2)C2CC2)c1Cl` [I.006], under setting [3], the logP amounted to 4.44. The logP values of the last two compounds are within 0.2 log units of each other.
`Cn1nc(C(F)F)c(C(=O)N(Cc2cccc(C3CCCCC3)c2C2(C)CC2)C2CC2)c1F` [I.007]: the logP under setting [3] is 5.74.
As to `Cn1nc(C(F)F)c(C(=O)N(Cc2cccc(F)c2C2(C)CC2)C2CC2)c1F` [I.008], the logP under setting [3] is 3.89.
Take `Cn1nc(C(F)F)c(C(=O)N(Cc2cccc(F)c2C2(C)CC2)C2CC2)c1Cl` [I.009]: the log partition coefficient (logP) under setting [3] stood at 3.99.
In the case of `Cn1nc(C(F)F)c(C(=S)N(Cc2cccc(F)c2C2(C)CC2)C2CC2)c1F` [I.010], the lipophilicity (logP) under setting [3] stood at 4.49.
`Cn1nc(C(F)F)c(C(=S)N(Cc2cccc(F)c2C2(C)CC2)C2CC2)c1Cl` [I.011] returned a logP under setting [3] of 4.64.
`Cn1nc(C(F)F)c(C(=O)N(Cc2cccc(-c3ccccc3)c2C2(C)CC2)C2CC2)c1F` [I.012] registered a lipophilicity (logP) under setting [3] of 4.73. The logP values of the last two compounds are within 0.2 log units of each other.
`Cn1nc(C(F)F)c(C(=O)N(Cc2cccc(C3=CC4CCC3C4)c2C2(C)CC2)C2CC2)c1F` (stereo not shown) [I.013] returned a logP under setting [3] of 5.78.
In turn, `Cn1nc(C(F)F)c(C(=O)N(Cc2cccc(C3=CCCCC3)c2C2(C)CC2)C2CC2)c1F` [I.014] registered a logP under setting [3] of 5.59.
On the same count and under the same terms, next, `C=C(C)c1cccc(CN(C(=O)c2c(C(F)F)nn(C)c2F)C2CC2)c1C1(C)CC1` [I.015]: 4.64; `Cn1nc(C(F)F)c(C(=O)N(Cc2ccc3c(c2C2(C)CC2)OCO3)C2CC2)c1F` [I.016]: 3.53.
For `Cn1nc(C(F)F)c(C(=O)N(Cc2ccc3c(c2C2(C)CC2)OCO3)C2CC2)c1Cl` [I.017], under setting [3], the log partition coefficient (logP) is given as 3.67. This logP and that of the compound before are within 0.2 log units of each other.
As for `Cn1nc(C(F)F)c(C(=O)N(Cc2ccc(Cl)cc2C2(C)CC2)C2CC2)c1F` [I.018], the logP under setting [3] was 4.43.
As for `Cn1nc(C(F)F)c(C(=O)N(Cc2ccc(Cl)cc2C2(C)CC2)C2CC2)c1Cl` [I.019], the logP under setting [3] came out at 4.54.
Regarding `Cn1nc(C(F)F)c(C(=O)N(Cc2ccc(C3CC3)cc2C2(C)CC2)C2CC2)c1F` [I.020], the logP under setting [3] was 4.51.
Under setting [3], `Cn1nc(C(F)F)c(C(=O)N(Cc2ccc(F)cc2C2(C)CC2)C2CC2)c1F` [I.021] showed a logP of 3.92.
Compound `Cn1nc(C(F)F)c(C(=O)N(Cc2ccc(F)cc2C2(C)CC2)C2CC2)c1Cl` [I.022] gave a logP under setting [3] of 4.06.
On the same count and under the same terms, next, `Cn1nc(C(F)F)c(C(=S)N(Cc2ccc(F)cc2C2(C)CC2)C2CC2)c1F` [I.023]: 4.56; `Cn1nc(C(F)F)c(C(=S)N(Cc2ccc(F)cc2C2(C)CC2)C2CC2)c1Cl` [I.024]: 4.74.
In the case of `CC(C)c1ccc(CN(C(=O)c2c(C(F)F)nn(C)c2F)C2CC2)c(C2(C)CC2)c1` [I.025], the logP under setting [3] turned out to be 4.90.
Same read-out and setting: next, `Cc1ccc(CN(C(=O)c2c(C(F)F)nn(C)c2F)C2CC2)c(C2(C)CC2)c1` [I.026]: 4.21.
In the case of `Cc1ccc(CN(C(=O)c2c(C(F)F)nn(C)c2Cl)C2CC2)c(C2(C)CC2)c1` [I.027], under setting [3], the logP was 4.36.
On to `COc1ccc(CN(C(=O)c2c(C(F)F)nn(C)c2F)C2CC2)c(C2(C)CC2)c1` [I.028], for which the log partition coefficient (logP) under setting [3] was determined as 3.69.
Same read-out and setting: to `COc1ccc(CN(C(=O)c2c(C(F)F)nn(C)c2Cl)C2CC2)c(C2(C)CC2)c1` [I.029] belongs 3.83.
As for `COc1ccc(CN(C(=S)c2c(C(F)F)nn(C)c2F)C2CC2)c(C2(C)CC2)c1` [I.030], the logP under setting [3] is given as 4.34.
Compound `COc1ccc(CN(C(=S)c2c(C(F)F)nn(C)c2Cl)C2CC2)c(C2(C)CC2)c1` [I.031] registered a logP under setting [3] of 4.51.
Consider `Cn1nc(C(F)F)c(C(=O)N(Cc2ccc(Oc3ccccc3)cc2C2(C)CC2)C2CC2)c1F` [I.032], for which the logP under setting [3] amounted to 4.91.
Under setting [3], `Cn1nc(C(F)F)c(C(=O)N(Cc2ccc(-c3ccccc3)cc2C2(C)CC2)C2CC2)c1F` [I.033] registered a logP of 4.93.
On the same count and under the same terms, to `Cn1ccc(-c2ccc(CN(C(=O)c3c(C(F)F)nn(C)c3F)C3CC3)c(C3(C)CC3)c2)c1` [I.034] belongs 4.15; to `Cc1ccccc1-c1ccc(CN(C(=O)c2c(C(F)F)nn(C)c2F)C2CC2)c(C2(C)CC2)c1` [I.035], 5.26.
For the compound `Cn1nc(C(F)F)c(C(=O)N(Cc2ccc(-c3ccc(F)c(F)c3)cc2C2(C)CC2)C2CC2)c1F` [I.036], the lipophilicity (logP) under setting [3] is on record as 5.03.
